Test results taken from patent US20200197480A1, “COMBINATION COMPRISING A PARTICULAR POLYMYXIN” (HELPERBY THERAPEUTICS LIMITED, priority 2017, published 2020).

Columns and labels:
[1] = test system: NDM-1 Klebsiella pneumoniae subsp. pneumoniae (BAA2472); test: chequerboard analysis, log phase culture, 24 hours incubation, FICI calculated; assay type: cell-based
Protocol: • Bacterial strain used: BAA2472 strain of NDM-1 Klebsiella pneumoniae subsp. pneumoniae from ATCC®. • Growth of bacteria: Log phase growth of the bacteria was carried out according to methods known in the art. • Compounds and preparation: • (i) HT0160010 was obtained from a commercial source and dissolved in DMSO to make a stock concentration of 10 mg/ml. • (ii) Colistimethate sodium (CMS) was obtained from a commercial source (e.g. Sigma Aldrich) at a concentration of 10 mg/ml.
(§1) Log phase bacterial culture was incubated with HT0160010 and CMS in combination using the chequerboard method known in the art. The overnight culture was diluted with nutrient broth (Oxoid) to 10^7 CFU/ml and 280 μl of the culture was added to each well to make a final concentration of 300 μl. Incubation of the compounds with the bacterial suspension was carried out for 24 hours. The HT0160010 concentration ranged from 128 to 0 μg/ml and the CMS concentration ranged from 16 to 0 μg/ml.
(§2) The effects of the combination were examined by calculating the fractional inhibitory concentration index (FICI) of each combination, as follows: (MIC of drug A, tested in combination)/(MIC of drug A, tested alone)+(MIC of drug B, tested in combination)/(MIC of drug B, tested alone). The interaction of the combination was defined as showing synergy if the FICI was ≤0.5, no interaction if the FICI was ≥0.5 but ≤4.0 and antagonism if the FICI was ≥4.0.
• Bacterial strain used: BAA2472 strain of NDM-1 Klebsiella pneumoniae subsp. pneumoniae from ATCC®. • Growth of bacteria: Log phase growth of the bacteria was carried out according to methods known in the art.
• (i) HT0160009 was obtained from a commercial source and dissolved in DMSO to make a stock concentration of 10 mg/ml. • (ii) Colistimethate sodium (CMS) was obtained from a commercial source (e.g. Sigma Aldrich) at a concentration of 10 mg/ml.
as §1, with “with HT0160009” for “with HT0160010”, “from 256” for “from 128”
The effects of the combination were examined by calculating the FICI in the same manner as Example 1.

[2] = test system: NDM-1 Escherichia coli (BAA2469); test: as above; assay type: cell-based; parameters: key: FICI; ≤0.5 synergy, 0.5–4.0 no interaction, ≥4.0 antagonism
Protocol: as §1, §2
• Bacterial strain used: BAA2469 strain of NDM-1 E. coli from ATCC®. • Growth of bacteria: Log phase growth of the bacteria was carried out according to methods known in the art.
Compounds and preparation were the same as Example 1. The effects of the combination were also examined by calculating the FICI in the same manner as Example 1.
as §1, with “with HT0160009” for “with HT0160010”, “from 256” for “from 128”
Compounds and preparation were the same as Example 3. The effects of the combination were also examined by calculating the FICI in the same manner as Example 3.

[3] = CMS 0.015625 μg/ml, HT0160010 0

O=C(c1cc(C(F)(F)F)nc2c(C(F)(F)F)cccc12)C1CCCCN1 (stereo not shown) [HT0160009]
chequerboard results ([1]; HT0160009 4 μg/ml, CMS 0): 0.50 | chequerboard results ([1]; HT0160009 8 μg/ml, CMS 0): 0.50 | chequerboard results ([1]; HT0160009 16 μg/ml, CMS 0): 0.49 | chequerboard results ([1]; HT0160009 32 μg/ml, CMS 0): 0.25 | chequerboard results ([1]; HT0160009 64 μg/ml, CMS 0): 0.17 | chequerboard results ([1]; HT0160009 128 μg/ml, CMS 0): 0.14 | chequerboard results ([1]; HT0160009 256 μg/ml, CMS 0): 0.05 | chequerboard results ([2]; HT0160009 4 μg/ml, CMS 0): 0.61 | chequerboard results ([2]; HT0160009 8 μg/ml, CMS 0): 0.54 | chequerboard results ([2]; HT0160009 16 μg/ml, CMS 0): 0.58 | chequerboard results ([2]; HT0160009 32 μg/ml, CMS 0): 0.32 | chequerboard results ([2]; HT0160009 64 μg/ml, CMS 0): 0.22 | chequerboard results ([2]; HT0160009 128 μg/ml, CMS 0): 0.21 | chequerboard results ([2]; HT0160009 256 μg/ml, CMS 0): 0.05

OC(c1ccccn1)c1cc(C(F)(F)F)nc2c(C(F)(F)F)cccc12 (stereo not shown) [HT0160010, (2,8-bis-trifluoromethyl-quinolin-4-yl)-pyridin-2-yl-methanol]
chequerboard results ([1]; HT0160010 4 μg/ml, CMS 0): 0.54 | chequerboard results ([1]; HT0160010 8 μg/ml, CMS 0): 0.57 | chequerboard results ([1]; HT0160010 16 μg/ml, CMS 0): 0.56 | chequerboard results ([1]; HT0160010 32 μg/ml, CMS 0): 0.56 | chequerboard results ([1]; HT0160010 64 μg/ml, CMS 0): 0.56 | chequerboard results ([1]; HT0160010 128 μg/ml, CMS 0): 0.57 | chequerboard results ([2]; HT0160010 4 μg/ml, CMS 0): 0.62 | chequerboard results ([2]; HT0160010 8 μg/ml, CMS 0): 0.58 | chequerboard results ([2]; HT0160010 16 μg/ml, CMS 0): 0.61 | chequerboard results ([2]; HT0160010 32 μg/ml, CMS 0): 0.62 | chequerboard results ([2]; HT0160010 64 μg/ml, CMS 0): 0.64 | chequerboard results ([2]; HT0160010 128 μg/ml, CMS 0): 0.61

Colistimethate sodium [CMS]
chequerboard results [1, 3]: 0.54 | chequerboard results ([1]; CMS 0.016 μg/ml, HT0160009 0): 0.52 | chequerboard results ([1]; CMS 0.031 μg/ml, HT0160009 0): 0.52 | chequerboard results ([1]; CMS 0.03125 μg/ml, HT0160010 0): 0.53 | chequerboard results ([1]; CMS 0.0625 μg/ml, HT0160010 0): 0.54 | chequerboard results ([1]; CMS 0.063 μg/ml, HT0160009 0): 0.53 | chequerboard results ([1]; CMS 0.125 μg/ml, HT0160009 0): 0.53 | chequerboard results ([1]; CMS 0.125 μg/ml, HT0160010 0): 0.52 | chequerboard results ([1]; CMS 0.25 μg/ml, HT0160009 0): 0.53 | chequerboard results ([1]; CMS 0.25 μg/ml, HT0160010 0): 0.51 | chequerboard results ([1]; CMS 0.5 μg/ml, HT0160009 0): 0.53 | chequerboard results ([1]; CMS 0.5 μg/ml, HT0160010 0): 0.52 | chequerboard results ([1]; CMS 1 μg/ml, HT0160009 0): 0.50 | chequerboard results ([1]; CMS 1 μg/ml, HT0160010 0): 0.41 | chequerboard results ([1]; CMS 2 μg/ml, HT0160009 0): 0.04 | chequerboard results ([1]; CMS 2 μg/ml, HT0160010 0): 0.05 | chequerboard results ([1]; CMS 4 μg/ml, HT0160009 0): 0.04 | chequerboard results ([1]; CMS 4 μg/ml, HT0160010 0): 0.04 | chequerboard results ([1]; CMS 8 μg/ml, HT0160009 0): 0.04 | chequerboard results ([1]; CMS 8 μg/ml, HT0160010 0): 0.05 | chequerboard results ([1]; CMS 16 μg/ml, HT0160009 0): 0.04 | chequerboard results ([1]; CMS 16 μg/ml, HT0160010 0): 0.05 | chequerboard results [2, 3]: 0.59 | chequerboard results ([2]; CMS 0.016 μg/ml, HT0160009 0): 0.62 | chequerboard results ([2]; CMS 0.031 μg/ml, HT0160009 0): 0.64 | chequerboard results ([2]; CMS 0.03125 μg/ml, HT0160010 0): 0.68 | chequerboard results ([2]; CMS 0.0625 μg/ml, HT0160010 0): 0.61 | chequerboard results ([2]; CMS 0.063 μg/ml, HT0160009 0): 0.66 | chequerboard results ([2]; CMS 0.125 μg/ml, HT0160009 0): 0.63 | chequerboard results ([2]; CMS 0.125 μg/ml, HT0160010 0): 0.59 | chequerboard results ([2]; CMS 0.25 μg/ml, HT0160009 0): 0.62 | chequerboard results ([2]; CMS 0.25 μg/ml, HT0160010 0): 0.61 | chequerboard results ([2]; CMS 0.5 μg/ml, HT0160009 0): 0.62 | chequerboard results ([2]; CMS 0.5 μg/ml, HT0160010 0): 0.59 | chequerboard results ([2]; CMS 1 μg/ml, HT0160009 0): 0.56 | chequerboard results ([2]; CMS 1 μg/ml, HT0160010 0): 0.55 | chequerboard results ([2]; CMS 2 μg/ml, HT0160009 0): 0.55 | chequerboard results ([2]; CMS 2 μg/ml, HT0160010 0): 0.54 | chequerboard results ([2]; CMS 4 μg/ml, HT0160009 0): 0.05 | chequerboard results ([2]; CMS 4 μg/ml, HT0160010 0): 0.18 | chequerboard results ([2]; CMS 8 μg/ml, HT0160009 0): 0.05 | chequerboard results ([2]; CMS 8 μg/ml, HT0160010 0): 0.05 | chequerboard results ([2]; CMS 16 μg/ml, HT0160009 0): 0.05 | chequerboard results ([2]; CMS 16 μg/ml, HT0160010 0): 0.05
